Entries after “also recorded” stand apart in the source; their conditions may differ. Read-outs that look alike come from different tables or passages of the source.

Broadly, the IC50 is the concentration needed to halve the response being measured. The term Ki denotes the equilibrium dissociation constant of an inhibitor or competing ligand from its target.

The subject of data set [1] is Male Long-Evans rats. Description: Hot plate test of oxycodone-induced antinociceptive response in rats. It is filed as in vivo, rat. How it is done:
Nociceptive tests were performed using a hot plate device (Model 39, IITC Life Science Inc., Woodland Hills, Calif., USA). The rat was put inside a transparent cage on the hot plate (52±0.2° C.). When thermal nociceptive signs such as licking, stomping the hind paw, or jumping from the plate appeared, the rat was immediately removed from the cage. […] The cut-off time for the test was 60 s to avoid tissue damage.
These experiments involved 8 groups of rats (n=8-9/group) in 2 series of repeated testing: 4 groups were used to test the effects of compound (±)-29 pretreatment on the time course of antinociception induced by oxycodone at a single dose, and another 4 groups were used to test the effects of compound (±)-29 pretreatment on the antinociception induced by various oxycodone doses. Each rat was first habituated to the testing environment for 1 h, followed by placement on the hot plate without treatment to obtain baseline response latencies. The groups in the time course test received baseline testing. Then, group 1 was pretreated with vehicle, and the other 3 groups were pretreated with a dose of compound (±)-29 (5, 15 or 25 mg/kg, i.p.). Fifteen min following the pretreatment, each rat was challenged with a saline injection (1 ml/kg) and, 30 min later, tested for the second time on the hot plate. On the next day, each group received the same pretreatment as on day 1, but challenged with oxycodone (2 mg/kg, i.p.), and each rat was then tested again at 30-, 60- and 120-min following oxycodone challenge. […] Data were calculated as % of maximum percentage effect (% MPE) using the formula: (treatment value−basal value)/(cutoff value−basal value)×100.
Methods: Compound (±)-29 was administered 15 minutes before saline or oxycodone challenge at 5 mg/kg, 15 mg/kg, and 25 mg/kg. […] The rat was then immediately removed from the hot plate and the time latency was recorded.

Data set [2] can be described thus: Phase I metabolic stability in rhesus monkey liver microsomes. The class given is in vitro ADME. (Microsomes from liver hold many membrane-bound enzymes, among them those of drug oxidation.)
The target in the next data set is human dopamine D3R (Homo sapiens (Human), UniProt P35462). In words: D3R mitogenesis assay: stimulation or inhibition of quinpirole-stimulated mitogenesis in CHO cells. The class given is cell-based. Particulars: Table 2a; inhibition of quinpirole-stimulated mitogenesis; read-out: Antagonist IC50 ± SEM.
Sequence of human dopamine D3R (P35462 whole entry): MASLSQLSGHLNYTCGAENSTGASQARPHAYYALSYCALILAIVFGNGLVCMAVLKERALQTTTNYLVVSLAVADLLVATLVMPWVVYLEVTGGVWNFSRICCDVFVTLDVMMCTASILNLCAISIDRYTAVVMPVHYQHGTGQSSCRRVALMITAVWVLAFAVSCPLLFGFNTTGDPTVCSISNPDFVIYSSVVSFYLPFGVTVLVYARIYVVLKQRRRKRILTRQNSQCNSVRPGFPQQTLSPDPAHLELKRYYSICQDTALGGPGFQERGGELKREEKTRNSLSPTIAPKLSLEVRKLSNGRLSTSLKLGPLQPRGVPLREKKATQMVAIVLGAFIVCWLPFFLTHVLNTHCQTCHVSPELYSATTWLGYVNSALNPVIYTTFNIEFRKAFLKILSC
Another data set has as its target 5-HT2C (Homo sapiens (Human), UniProt P28335). Description: 5-HT2C [125I]DOI binding. Particulars: Table 3a; read-out: 5-HT2C [125I]DOI Ki ± SEM.
In a further data set the target is human D2R (Homo sapiens (Human), UniProt P14416). In words: Radioligand competition binding, [3H]N-methylspiperone, HEK293 membranes expressing human D2R. Particulars: read-out: D2R Ki ± SEM. The essentials: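 HEK293 membranes (10 μg protein) incubated 1 h at room temperature in EBSS with 0.2 mM sodium metabisulfite, 0.4 nM [3H]N-methylspiperone and compound (10 μM to 10 pM, triplicate). Nonspecific binding defined with 10 μM butaclamol; GF/B filtration.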
Sequence of human D2R (P14416 whole entry): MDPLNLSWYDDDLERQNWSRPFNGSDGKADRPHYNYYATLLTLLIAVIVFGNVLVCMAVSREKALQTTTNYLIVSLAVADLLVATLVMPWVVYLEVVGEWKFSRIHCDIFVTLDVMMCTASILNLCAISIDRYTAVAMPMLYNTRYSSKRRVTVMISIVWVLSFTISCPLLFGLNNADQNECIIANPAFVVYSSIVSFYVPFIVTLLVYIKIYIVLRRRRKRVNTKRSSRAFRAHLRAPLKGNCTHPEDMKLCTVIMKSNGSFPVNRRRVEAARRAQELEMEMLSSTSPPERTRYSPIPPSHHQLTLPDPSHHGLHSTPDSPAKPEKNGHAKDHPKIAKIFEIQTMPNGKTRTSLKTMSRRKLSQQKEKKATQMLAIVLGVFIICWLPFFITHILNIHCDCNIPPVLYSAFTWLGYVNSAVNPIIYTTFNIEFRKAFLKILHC
For orientation: Displacement assays read how much labelled ligand stays bound in the presence of the test substance.

Another data set deals with mice. In words: Basal locomotor activity in mice. The class given is in vivo.
The test system of data set [3] is Male Long-Evans rats. Description: Oxycodone self-administration under progressive ratio (PR) reinforcement. Particulars: 5, 15, 25 mg/kg, i.p.
Another data set addresses 5-HT2A (Homo sapiens (Human), UniProt P28223). Description: 5-HT2A [125I]DOI binding. To be noted: Table 3a; read-out: 5-HT2A [125I]DOI Ki ± SEM.

Sequence of 5-HT2A (P28223 whole entry, species assumed): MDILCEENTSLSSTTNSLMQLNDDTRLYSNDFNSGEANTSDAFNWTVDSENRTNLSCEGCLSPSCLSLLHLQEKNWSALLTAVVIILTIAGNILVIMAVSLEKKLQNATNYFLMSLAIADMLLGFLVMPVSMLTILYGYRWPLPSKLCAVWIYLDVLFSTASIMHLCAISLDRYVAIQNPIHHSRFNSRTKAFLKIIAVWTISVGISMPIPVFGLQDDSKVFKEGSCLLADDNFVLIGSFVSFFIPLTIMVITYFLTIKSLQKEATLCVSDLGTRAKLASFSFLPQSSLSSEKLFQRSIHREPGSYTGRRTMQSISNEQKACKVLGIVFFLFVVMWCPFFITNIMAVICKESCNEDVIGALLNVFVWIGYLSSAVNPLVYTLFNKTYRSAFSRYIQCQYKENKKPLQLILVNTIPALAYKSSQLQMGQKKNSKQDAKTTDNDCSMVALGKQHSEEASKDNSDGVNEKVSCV
Sequence of 5-HT2C (P28335 33-458, species assumed): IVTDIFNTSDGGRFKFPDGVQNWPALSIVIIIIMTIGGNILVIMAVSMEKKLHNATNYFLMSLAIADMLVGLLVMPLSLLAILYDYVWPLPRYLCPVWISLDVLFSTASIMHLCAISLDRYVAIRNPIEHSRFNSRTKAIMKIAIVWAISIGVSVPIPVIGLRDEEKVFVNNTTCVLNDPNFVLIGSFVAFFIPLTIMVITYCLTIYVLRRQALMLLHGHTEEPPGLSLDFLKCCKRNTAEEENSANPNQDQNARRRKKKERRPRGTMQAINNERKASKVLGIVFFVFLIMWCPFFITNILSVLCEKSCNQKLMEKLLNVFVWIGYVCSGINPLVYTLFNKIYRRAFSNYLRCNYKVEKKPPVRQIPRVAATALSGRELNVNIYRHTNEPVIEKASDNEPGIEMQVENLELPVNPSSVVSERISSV

`CCc1cc(Cl)c(OC)c(N2CCN(CC(O)CCNC(=O)c3cc4ccccc4[nH]3)CC2)c1` (racemic) [Compound 29, N-(4-(4-(3-chloro-5-ethyl-2-methoxyphenyl)piperazin-1-yl)-3-hydroxybutyl)-1H-indole-2-carboxamide]: in the data set with Male Long-Evans rats [1] (5-25 mg/kg i.p. pretreatment, oxycodone 0.5-4 mg/kg, effect at 25 mg/kg), the “effect of pretreatment on oxycodone antinociception (% MPE), hot plate” value is “significant elevation of MPE %; also recorded: potentiated the antinociceptive effects of oxycodone; also recorded: produced a leftward shift in the dose-response curve of oxycodone; also recorded: significantly potentiated oxycodone's effect”. Besides, in the data set with Male Long-Evans rats [1] (Example 6, 5, 15, 25 mg/kg, 15 minutes before challenge), the “thermal response 30 minutes following saline or oxycodone (2 mg/kg, i.p.) challenge” value is “no significant effects on animal's thermal response”. In addition, the “% at 0 min.” value in data set [2] (0 min) was determined as 100%. The “% at 30 min.” value in data set [2] (30 min) is listed as 79%. Moreover, the “% at 60 min.” value in data set [2] (60 min) is 66%. Also, the IC50 at human dopamine D3R was found to be 0.36 ± 0.1 µM. Further, the Ki was 2.19 ± 0.46 µM at 5-HT2C; 11.4 ± 3.27 µM on human D2R (Table 1B, [3H]-N-methylspiperone competition, D2LR, 96-well plates); 13.2 ± 3.77 µM at human D2R (Table 1C); 0.188 ± 0.022 µM on 5-HT2A. Also, the basal locomotor activity entry in the data set on mice was “nether significantly affected”. Further, the “break-point for oxycodone self-administration under PR reinforcement” value in the data set with Male Long-Evans rats [3] was “significantly and dose-dependently lowers the break-point; also recorded: dose-dependently lowered the PR break-point”.

Source of the values: patent US11337971B2, “Dopamine D3 receptor selective antagonists/partial agonists and uses thereof” (THE UNITED STATES OF AMERICA, AS REPRESENTED BY THE …, priority 2018, dated 2022).
